Test results taken from patent US20090029932A1, “Identification and use of miRNAs for differentiating myeloid leukemia cells” (Centre National De La Recherche Scientifique (CNRS), priority 2004, published 2009).

Tests used:
NB4 cell line = test: Granulocytic differentiation, NBT reduction test, NB4 cells; type: cell-based, human; conditions: for percentage of cells differentiated during the treatment: 100 μM 8-CPT-cAMP where added, NBT positive cells
Procedure: (§1) The cells from cell line NB4 and cell line NB4-LR1, resistant at maturation only by ATRA, were grown as described in LANOTTE et al. (1991, previously cited) and in RUCHAUD et al. (Proc. Natl. Acad. Sci., vol. 91, p: 8428-8432, 1994). The cells were then treated for 4 days in the presence of 1 μM of all-trans retinoic acid (ATRA, SIGMA-ALRICH) alone or with the addition of 100 μM of an cAMP analogue (8-CPT-cAMP, SIGMA-ALRICH). The cell proliferation was determined on a daily basis by counting the cells using a cell counter (BECKMAN COULTER FRANCE SA) from day 0, following the addition of the therapeutic agent, to day 4.
(§2) In parallel, the evolution of the differentiation was determined on a daily basis throughout the treatment. The granulocytic differentiation was simultaneously evaluated according to the morphological and biochemical criteria. The morphological analysis was carried out after May-Grünwald colouring. The biochemical analysis was carried out by a coloration test based on the reduction of NBT (nitro blue tetrazolium) that is used to measure the oxidative ability of the mature cells to reduce the NBT colorant. For this purpose, 0.5 to 1×10^5 cells were centrifuged for 5 minutes at 190 g. The cell sediment was then recovered in 200 μl of saline phosphate buffer (PBS) with the addition of NBT (SIGMA ALDRICH, 1 mg/ml) and PMA (Phorbol 12-myristate 13-acetate, SIGMA, 10^−7M) and then was incubated for 20 minutes at 37° C. The cells were then collected on slides by Cytospin® centrifugation, then observed by phase contrast microscopy. A minimum of 200 cells per slide were examined under light microscope and a differentiation percentage was calculated on the basis of the number of positive NBT cells.

NB4-LR1 cell line = test: Granulocytic differentiation, NBT reduction test, NB4-LR1 cells; type: cell-based, human; conditions: for percentage of cells differentiated during the treatment: 100 μM 8-CPT-cAMP where added, NBT positive cells
Procedure: as §1, §2

miRNAs in NB4 cells = test: Northern blot of miRNA expression in NB4 cells; type: cell-based, human; conditions: 1 μM ATRA
Procedure: (§3) The total RNA was extracted from the cells of the NB4 cell lines treated or not treated with 1 μM of ATRA, at the same time intervals as in example 1, and using the Tri-Reagent® kit (SIGMA) according to the manufacturer's instructions. The analysis of the low molecular weight RNA by northern blot was carried out as described in LLAVE et al. (2002, previously cited). All of the northern blot experiments were carried out in double. DNA oligonucleotides complementary to the sequences of the miRNAs analysed were labelled at their end with ATP γ-P^32 using the polynucleotide kinase T4 (NEW ENGLAND BIOLABS) by following the manufacturer's instructions.
The quantity of RNA in each well was controlled by coloration of the gel with ethidium bromide and visualisation of the ribosomal RNA (rRNA) under UV light. […] In addition, the miRNAs that seem to belong to a same precursor effectively present a similar expression profile over time.
(§4) To formally establish the correlation between the expression of the different miRNAs identified and the differentiation in granulocytes, cells from NB4 and NB4-LR1 cell lines were cultivated in the presence or absence of ATRA as described in example 1. Northern blot experiments were carried out according to the protocol described in example 2. The different northern blot experiments were carried out with probes complementary to the miRNAs miR-23a, miR-17, miR-18, miR-19a, miR-19b, miR-20, miR-23 and miR-92.
To confirm the correlation between the expression of different miRNAs, and in particular miR-17, miR-18, miR-19a, miR19b, miR-20 and miR-92 and the differentiation in granulocytes, cells from NB4 and NB4-LR1 cell lines were cultivated in the presence or absence of ATRA/cAMP as described in example 1. Following an ATRA/cAMP co-treatment, the differentiation of the cells in the NB4-LR1 cell line in granulocytes is restored. Northern blot experiments were carried out according to the protocol described in example 2. […]

miRNAs in NB4-LR1 cells = test: Northern blot of miRNA expression in NB4-LR1 cells; type: cell-based, human; conditions: NB4-LR1 compared with NB4; ATRA
Procedure: as §3
as §4, with “miR-92. […]” for “miR-92.”

miR23a in NB4-LR2 cells = test: Northern blot of miR23a expression in NB4-LR2 cells; type: cell-based, human; conditions: ATRA
NB4-LR2 cell line = conditions: truncated PML-RARa; cited from earlier work

For CC1=C(/C=C/C(C)=C/C=C/C(C)=C/C(=O)O)C(C)(C)CCC1 [ATRA, all-trans retinoic acid], the “differentiation of the cells (in words)” value (NB4 cell line) was “differentiate”, the “percentage of cells differentiated during the treatment” value (NB4 cell line; day 0, 1 μM ATRA) was 0% and the “percentage of cells differentiated during the treatment” value (NB4 cell line; day 1, 1 μM ATRA) was 6%. For the same compound, the “percentage of cells differentiated during the treatment” value (NB4 cell line; day 2, 1 μM ATRA) was 20%, the “percentage of cells differentiated during the treatment” value (NB4 cell line; day 3, 1 μM ATRA) was 43% and the “percentage of cells differentiated during the treatment” value (NB4 cell line; day 4, 1 μM ATRA) was 95%. For the same compound, the “differentiation of the cells (in words)” value (NB4-LR1 cell line) was “only the cells in the NB4 cell line differentiate”, the “percentage of cells differentiated during the treatment” value (NB4-LR1 cell line; day 0, 1 μM ATRA) was 0% and the “percentage of cells differentiated during the treatment” value (NB4-LR1 cell line; day 1, 1 μM ATRA) was 0%. For the same compound, the “percentage of cells differentiated during the treatment” value (NB4-LR1 cell line; day 2, 1 μM ATRA) was 2%, the “percentage of cells differentiated during the treatment” value (NB4-LR1 cell line; day 3, 1 μM ATRA) was 5% and the “percentage of cells differentiated during the treatment” value (NB4-LR1 cell line; day 4, 1 μM ATRA) was 5%. The “expression profile of miR-19b and miR-92, time of maximum” value (miRNAs in NB4 cells; 0 to 4 days) was “maximum of expression on day three of treatment”, the “level of expression of miR-23a” value (miRNAs in NB4 cells; 0 to 4 days) was “increases over time” and the “level of expression of miR-19b and miR-92 on day 4 of treatment” value (miRNAs in NB4 cells; against non treated cells) was “lower than their level of expression in the non treated cells”. For the same compound, the “expression profile of miR-17, miR-18, miR-19a, miR19b, miR-20 and miR-92” value (miRNAs in NB4-LR1 cells) was “different expression profile between the NB4 and NB4-LR1 cells”, the “expression of miR23a” value (miR23a in NB4-LR2 cells) was “an increase in the expression of miR23a is not observed” and the “sensitivity of the cells to induced differentiation” value (NB4-LR2 cell line) was “insensitive”.
